What all share (experiment): Ambit kinase profiling, competition binding
For one experiment, the target named is T1, MRCKA (Homo sapiens, UniProt Q5VT25).
T1 construct: purchased Ambit Biosciences (KINOMEscan)
As for the experimental part:
(§1) Also included in the kinase profile are four isoforms of PKC (δ, ε, η, θ) and eight isoforms of CAMKs (CAMKIα, δ, γ; CAMKIIα, β, δ, γ; CAMK4).
(§2) The global kinase profiling experiment was performed by Ambit Biosciences.

The target in a further experiment is T2, CSNK1G2 (Homo sapiens, UniProt P78368).
T2 construct: purchased Ambit Biosciences (KINOMEscan)
Conditions: for % Competition: 10 µM. The method, then: as §1, §2

The target of another experiment is T3, HPK1 (Homo sapiens, UniProt Q92918).
T3 construct: purchased Ambit Biosciences (KINOMEscan)
The method, then: as §1, §2

The target of a further experiment is T4, LATS2 (Homo sapiens, UniProt Q9NRM7).
T4 construct: purchased Ambit Biosciences (KINOMEscan)
T4 sequence (Q9NRM7 1-1088): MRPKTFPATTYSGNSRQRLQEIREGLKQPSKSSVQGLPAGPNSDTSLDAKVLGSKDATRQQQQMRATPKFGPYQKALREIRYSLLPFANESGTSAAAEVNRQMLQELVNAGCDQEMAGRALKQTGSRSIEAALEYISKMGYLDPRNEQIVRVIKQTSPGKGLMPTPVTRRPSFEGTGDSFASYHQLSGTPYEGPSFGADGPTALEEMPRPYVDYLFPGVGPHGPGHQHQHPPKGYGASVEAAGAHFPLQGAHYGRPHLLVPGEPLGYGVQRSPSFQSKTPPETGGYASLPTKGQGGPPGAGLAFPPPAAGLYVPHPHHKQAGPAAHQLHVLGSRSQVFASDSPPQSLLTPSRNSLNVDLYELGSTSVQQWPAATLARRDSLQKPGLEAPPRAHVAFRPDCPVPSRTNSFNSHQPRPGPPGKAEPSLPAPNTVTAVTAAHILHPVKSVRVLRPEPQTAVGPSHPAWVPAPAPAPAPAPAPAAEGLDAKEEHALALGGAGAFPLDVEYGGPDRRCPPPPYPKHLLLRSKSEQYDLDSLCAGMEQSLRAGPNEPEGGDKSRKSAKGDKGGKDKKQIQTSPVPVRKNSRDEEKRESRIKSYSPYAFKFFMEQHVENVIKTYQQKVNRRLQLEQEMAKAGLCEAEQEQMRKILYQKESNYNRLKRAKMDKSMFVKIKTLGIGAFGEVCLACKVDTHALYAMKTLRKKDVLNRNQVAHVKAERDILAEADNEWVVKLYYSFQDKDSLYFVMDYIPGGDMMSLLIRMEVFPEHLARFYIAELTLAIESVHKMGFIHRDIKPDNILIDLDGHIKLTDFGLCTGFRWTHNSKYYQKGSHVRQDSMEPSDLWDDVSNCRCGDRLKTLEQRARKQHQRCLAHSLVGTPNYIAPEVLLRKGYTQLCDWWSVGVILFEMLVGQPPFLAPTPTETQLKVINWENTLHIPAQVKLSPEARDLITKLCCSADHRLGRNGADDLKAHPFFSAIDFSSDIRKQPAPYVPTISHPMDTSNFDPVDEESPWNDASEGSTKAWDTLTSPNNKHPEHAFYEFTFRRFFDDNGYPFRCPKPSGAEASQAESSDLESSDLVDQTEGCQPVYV
The conditions noted are these: for % Competition: 10 µM. The method, then: as §1, §2

The target in experiment [1] is T5, RPS6KA1(Kin.Dom.2-C-terminal) (Homo sapiens, UniProt Q15418).
T5 construct: RPS6KA1(Kin.Dom.2-C-terminal); purchased Ambit Biosciences (KINOMEscan)
The method, then: as §1, §2

Experiment [2] concerns the target T6, EGFR(L747-E749del, A750P) (Homo sapiens, UniProt P00533, A750P/DEL747-749).
T6 construct: purchased Ambit Biosciences (KINOMEscan)
Conditions: for % Competition: 10 µM. The method, then: as §1, §2

A further experiment deals with T7, BMPR1B (Homo sapiens, UniProt O00238).
T7 construct: purchased Ambit Biosciences (KINOMEscan)
As for the experimental part:
as §1, §2

The target in a further experiment is T8, EPHB3 (Homo sapiens, UniProt P54753).
T8 construct: purchased Ambit Biosciences (KINOMEscan)
T8 sequence (P54753 34-998): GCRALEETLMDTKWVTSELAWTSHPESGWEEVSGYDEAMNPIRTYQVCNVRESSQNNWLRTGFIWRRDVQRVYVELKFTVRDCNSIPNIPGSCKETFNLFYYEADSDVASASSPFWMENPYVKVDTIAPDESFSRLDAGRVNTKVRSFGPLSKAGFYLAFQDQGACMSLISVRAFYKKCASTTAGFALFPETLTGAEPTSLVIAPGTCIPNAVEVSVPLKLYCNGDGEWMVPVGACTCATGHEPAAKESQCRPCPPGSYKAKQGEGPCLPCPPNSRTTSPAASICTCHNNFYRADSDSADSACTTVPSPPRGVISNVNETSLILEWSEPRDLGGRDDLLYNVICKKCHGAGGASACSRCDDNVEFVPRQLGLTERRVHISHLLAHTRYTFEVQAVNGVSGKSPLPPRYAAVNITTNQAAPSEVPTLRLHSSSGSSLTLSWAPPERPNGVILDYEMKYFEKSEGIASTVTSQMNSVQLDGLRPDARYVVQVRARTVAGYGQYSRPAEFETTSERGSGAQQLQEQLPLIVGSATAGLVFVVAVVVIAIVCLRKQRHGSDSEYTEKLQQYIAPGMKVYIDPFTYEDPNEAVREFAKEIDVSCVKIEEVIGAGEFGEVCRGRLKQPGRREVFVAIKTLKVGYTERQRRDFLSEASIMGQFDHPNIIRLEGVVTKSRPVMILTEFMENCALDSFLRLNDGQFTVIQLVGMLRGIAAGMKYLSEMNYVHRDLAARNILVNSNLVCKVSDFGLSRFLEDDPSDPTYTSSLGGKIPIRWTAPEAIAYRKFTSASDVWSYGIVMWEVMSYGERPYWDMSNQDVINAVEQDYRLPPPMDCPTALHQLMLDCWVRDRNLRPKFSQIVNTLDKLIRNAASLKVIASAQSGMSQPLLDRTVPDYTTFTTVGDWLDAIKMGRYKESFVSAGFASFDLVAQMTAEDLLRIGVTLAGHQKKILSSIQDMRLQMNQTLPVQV
The method, then:
as §1, §2

Read-outs that look alike come from different tables or passages of the source.

T7 sequence (O00238 14-502): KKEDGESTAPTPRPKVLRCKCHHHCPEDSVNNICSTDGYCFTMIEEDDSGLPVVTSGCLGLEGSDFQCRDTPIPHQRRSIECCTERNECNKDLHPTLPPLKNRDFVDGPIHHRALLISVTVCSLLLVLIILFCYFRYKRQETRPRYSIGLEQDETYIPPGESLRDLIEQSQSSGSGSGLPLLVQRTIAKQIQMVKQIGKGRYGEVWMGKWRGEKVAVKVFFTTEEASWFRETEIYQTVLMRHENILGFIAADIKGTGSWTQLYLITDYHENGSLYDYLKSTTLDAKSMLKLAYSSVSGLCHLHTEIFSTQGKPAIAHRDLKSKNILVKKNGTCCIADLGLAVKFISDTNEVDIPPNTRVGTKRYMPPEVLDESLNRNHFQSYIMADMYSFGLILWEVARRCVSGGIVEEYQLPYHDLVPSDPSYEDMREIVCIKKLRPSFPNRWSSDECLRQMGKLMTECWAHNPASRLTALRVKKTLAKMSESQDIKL
T1 sequence (Q5VT25 whole entry): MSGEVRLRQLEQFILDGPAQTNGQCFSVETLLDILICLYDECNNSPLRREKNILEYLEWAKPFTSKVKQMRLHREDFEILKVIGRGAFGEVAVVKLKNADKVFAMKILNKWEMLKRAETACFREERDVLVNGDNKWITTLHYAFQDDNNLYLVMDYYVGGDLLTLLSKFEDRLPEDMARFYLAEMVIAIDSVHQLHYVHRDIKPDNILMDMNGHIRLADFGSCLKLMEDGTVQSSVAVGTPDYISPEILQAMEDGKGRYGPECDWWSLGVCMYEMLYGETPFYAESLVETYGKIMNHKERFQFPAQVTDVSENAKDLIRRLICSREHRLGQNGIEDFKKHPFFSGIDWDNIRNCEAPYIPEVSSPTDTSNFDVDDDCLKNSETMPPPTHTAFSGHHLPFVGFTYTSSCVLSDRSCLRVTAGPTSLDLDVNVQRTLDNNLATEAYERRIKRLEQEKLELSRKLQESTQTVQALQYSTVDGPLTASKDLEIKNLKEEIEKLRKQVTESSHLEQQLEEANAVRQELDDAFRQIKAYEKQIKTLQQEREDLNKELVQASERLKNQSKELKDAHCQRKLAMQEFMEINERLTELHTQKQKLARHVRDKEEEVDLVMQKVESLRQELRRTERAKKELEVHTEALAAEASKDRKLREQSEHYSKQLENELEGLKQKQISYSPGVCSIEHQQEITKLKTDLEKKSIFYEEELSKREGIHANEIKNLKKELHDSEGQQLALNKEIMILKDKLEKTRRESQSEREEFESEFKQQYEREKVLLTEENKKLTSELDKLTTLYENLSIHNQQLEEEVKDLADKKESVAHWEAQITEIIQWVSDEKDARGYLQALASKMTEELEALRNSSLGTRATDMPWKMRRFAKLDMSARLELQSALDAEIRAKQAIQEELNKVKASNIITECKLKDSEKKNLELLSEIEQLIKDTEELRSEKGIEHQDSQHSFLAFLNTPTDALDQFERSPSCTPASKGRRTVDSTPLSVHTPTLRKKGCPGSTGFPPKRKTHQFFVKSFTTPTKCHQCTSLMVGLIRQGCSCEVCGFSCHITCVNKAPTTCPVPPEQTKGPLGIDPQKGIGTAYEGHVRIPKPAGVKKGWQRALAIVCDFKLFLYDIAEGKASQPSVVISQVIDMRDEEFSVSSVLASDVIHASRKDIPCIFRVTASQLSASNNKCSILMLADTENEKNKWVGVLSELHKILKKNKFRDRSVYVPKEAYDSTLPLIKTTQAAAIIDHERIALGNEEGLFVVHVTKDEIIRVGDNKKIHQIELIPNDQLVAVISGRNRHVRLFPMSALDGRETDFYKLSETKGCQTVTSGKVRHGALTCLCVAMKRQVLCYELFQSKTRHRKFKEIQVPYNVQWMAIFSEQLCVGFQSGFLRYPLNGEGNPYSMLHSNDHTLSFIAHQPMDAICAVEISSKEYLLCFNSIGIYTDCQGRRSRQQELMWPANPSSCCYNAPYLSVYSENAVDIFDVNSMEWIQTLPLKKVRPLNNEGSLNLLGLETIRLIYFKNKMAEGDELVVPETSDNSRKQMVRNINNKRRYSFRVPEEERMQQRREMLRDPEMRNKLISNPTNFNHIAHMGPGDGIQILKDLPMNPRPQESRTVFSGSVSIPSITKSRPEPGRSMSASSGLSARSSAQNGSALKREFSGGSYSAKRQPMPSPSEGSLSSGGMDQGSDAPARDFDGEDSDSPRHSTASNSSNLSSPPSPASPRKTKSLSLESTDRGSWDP
T5 sequence (Q15418 392-735 limits assumed): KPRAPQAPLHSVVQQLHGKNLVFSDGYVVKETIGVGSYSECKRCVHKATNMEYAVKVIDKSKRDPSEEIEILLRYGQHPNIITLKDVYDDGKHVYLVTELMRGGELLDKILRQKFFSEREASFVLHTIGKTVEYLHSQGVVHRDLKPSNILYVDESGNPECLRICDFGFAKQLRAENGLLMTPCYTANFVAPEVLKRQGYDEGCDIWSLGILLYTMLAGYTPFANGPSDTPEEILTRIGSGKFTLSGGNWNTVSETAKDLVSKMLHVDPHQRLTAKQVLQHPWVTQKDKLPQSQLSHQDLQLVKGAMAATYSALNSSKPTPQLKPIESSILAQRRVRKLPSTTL
T3 sequence (Q92918 whole entry): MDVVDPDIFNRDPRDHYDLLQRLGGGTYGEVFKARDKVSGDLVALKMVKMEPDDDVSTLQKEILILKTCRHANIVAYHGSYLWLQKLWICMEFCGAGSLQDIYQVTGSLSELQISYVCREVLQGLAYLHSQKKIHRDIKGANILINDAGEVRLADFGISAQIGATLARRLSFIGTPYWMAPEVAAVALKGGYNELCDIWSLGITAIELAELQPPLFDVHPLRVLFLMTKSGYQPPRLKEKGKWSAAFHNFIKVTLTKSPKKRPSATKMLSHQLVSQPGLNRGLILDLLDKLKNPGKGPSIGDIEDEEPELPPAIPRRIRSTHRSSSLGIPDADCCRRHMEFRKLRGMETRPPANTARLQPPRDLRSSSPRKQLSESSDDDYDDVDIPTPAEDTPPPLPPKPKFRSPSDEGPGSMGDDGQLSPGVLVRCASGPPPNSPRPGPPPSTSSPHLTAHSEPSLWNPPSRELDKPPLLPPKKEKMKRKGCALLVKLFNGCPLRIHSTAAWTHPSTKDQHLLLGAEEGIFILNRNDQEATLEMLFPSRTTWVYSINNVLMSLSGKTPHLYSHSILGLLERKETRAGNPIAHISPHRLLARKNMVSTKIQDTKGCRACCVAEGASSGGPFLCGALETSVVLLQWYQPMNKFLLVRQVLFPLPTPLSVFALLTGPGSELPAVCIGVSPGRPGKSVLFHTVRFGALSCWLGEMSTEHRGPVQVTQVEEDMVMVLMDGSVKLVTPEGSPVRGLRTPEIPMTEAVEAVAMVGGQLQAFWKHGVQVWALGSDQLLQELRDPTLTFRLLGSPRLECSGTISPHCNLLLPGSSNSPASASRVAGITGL
T2 sequence (P78368 whole entry): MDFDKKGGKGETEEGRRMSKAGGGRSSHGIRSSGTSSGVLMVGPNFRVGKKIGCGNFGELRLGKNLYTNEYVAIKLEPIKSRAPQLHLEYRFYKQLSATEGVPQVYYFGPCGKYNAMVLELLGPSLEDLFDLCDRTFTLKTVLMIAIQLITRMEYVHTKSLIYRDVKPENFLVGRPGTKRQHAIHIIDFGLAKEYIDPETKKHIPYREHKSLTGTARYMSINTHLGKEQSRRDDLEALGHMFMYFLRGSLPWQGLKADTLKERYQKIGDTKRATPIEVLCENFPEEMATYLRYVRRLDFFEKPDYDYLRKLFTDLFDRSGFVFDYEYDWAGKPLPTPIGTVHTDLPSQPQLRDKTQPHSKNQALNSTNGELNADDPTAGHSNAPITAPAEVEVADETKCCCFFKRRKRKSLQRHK

Turning to `Fc1ccc(-c2c(-c3ccncc3)[nH]c3nccnc23)cc1` [Compound 122], the inhibition at 10 µM at MRCKA (MRCKA, 10 µM, read-out: % Competition) was determined as 99%; on HPK1 (HPK1, 10 µM, read-out: % Competition), 67%; in experiment [1] (RPS6KA1(Kin.Dom.2-C-terminal), 10 µM, read-out: % Competition), 92%; on BMPR1B (BMPR1B, 10 µM, read-out: % Competition), 81%; on EPHB3 (EPHB3, 10 µM, read-out: % Competition) it was 82%. In addition, the “% Competition” value at CSNK1G2 was found to be 82%; on LATS2, 82%; in experiment [2] it was 98%.

Take `CC(O)CNc1cc(-c2[nH]c3cccnc3c2-c2ccc(F)cc2)ccn1` (stereo not drawn) [Compound 140]: the inhibition at 10 µM is less than 50% at MRCKA (read-out: % Competition); less than 50% at HPK1 (read-out: % Competition); 87% in experiment [1] (read-out: % Competition); less than 50% at BMPR1B (read-out: % Competition); less than 50% on EPHB3 (read-out: % Competition). Moreover, the figures for the “% Competition” value (at CSNK1G2; on LATS2; in experiment [2]) were 89%, less than 50% and 90%, respectively.

For the compound `Fc1ccc(-c2c(-c3ccncc3)[nH]c3nccnc23)cc1` [RO1155697-000-005], the inhibition at 10 µM on MRCKA (MRCKA, compound concentration 10 uM, read-out: Percent Competition) was 99%; on HPK1 (HPK1, compound concentration 10 uM, read-out: Percent Competition), 67%; in experiment [1] (RPS6KA1(Kin.Dom.2-C-terminal), compound concentration 10 uM, read-out: Percent Competition) it was 92%; at BMPR1B (BMPR1B, compound concentration 10 uM, read-out: Percent Competition), 81%; on EPHB3 (EPHB3, compound concentration 10 uM, read-out: Percent Competition) it was 82%. Moreover, the figures for the “Percent Competition” value (at CSNK1G2 (compound concentration 10 uM); at LATS2 (compound concentration 10 uM); in experiment [2] (compound concentration 10 uM)) were 82%, 82% and 98%, respectively.
